The text below walks through data of patent US20120165309A1, “HETERO RING DERIVATIVE” (Astellas Pharma Inc., priority 2009, published 2012).

For one experiment, the target named is T1, Human PI3Kα (Homo sapiens, UniProt P42336).
T1 construct: purchased Millipore Corporation 14-602
The experiment in a line: PI3Kα enzyme inhibitory activity (Kinase-Glo Plus luminescence). The experiment is classed as biochemical. Particulars: Human PI3Kα 12 ng/well, phosphatidylinositol 0.2 μg/well, 37° C. for 3 hours. The method, then:
2. PI3Kα Enzyme Inhibitory Activity
Human PI3Kα (12 ng/well, Millipore Corporation, Catalogue No. 14-602), phosphatidylinositol (0.2 μg/well), and the test compound were mixed in a 384-well plate in a reaction buffer (50 mM Hepes, 10 mM NaCl, 10 mM MgCl2, 2 mM EGTA, 2 mM DTT, pH 7.3) (total 10 μl), and incubated at 37° C. for 3 hours. After the reaction, 10 μL of a Kinase-Glo Plus reagent (Promega, Catalogue No. V3772) was added thereto, and a luminescence was measured with a luminometer. The IC50 value of the compound was calculated, taking the inhibition rate without addition of the enzyme as 100% and the inhibition rate without addition of the test compound as 0%, by a logistic method.
(§1) In the Table, Ex represents Example Compound No. as described later, PI3Kδ represents the IC50 value (nM) of a PI3Kδ enzyme inhibitory activity, and PI3Kα represents the IC50 value (nM) of a PI3Kα enzyme inhibitory activity.

A further experiment has as its target T2, human PI3Kδ enzyme (Homo sapiens, UniProt O00329).
T2 construct: purchased Millipore Corporation 14-604
The experiment in a line: PI3Kδ enzyme inhibitory activity (PI3-Kinase HTRF Assay kit). The experiment is classed as biochemical. Particulars: human PI3Kδ 10 ng/well, ATP 30 μM, PIP2 10 μM, room temperature 30 minutes. The method, then: 1. PI3Kδ Enzyme Inhibitory Activity
For the experiment, a PI3-Kinase HTRF Assay kit (Millipore Corporation, Catalogue No. 33-016) and a human PI3Kδ enzyme (Millipore Corporation, Catalogue No. 14-604) were used. The measurement method was in accordance with the appended instructions. The overview thereof is as follows.
PI3Kδ (10 ng/well), phosphatidylinositol-4,5-bisphosphate (10 μM), ATP (30 μM), and the test compound were mixed in a 384-well plate (total 20 μL), and incubated at room temperature for 30 minutes. EDTA and biotinylated phosphatidylinositol-3,4,5-triphosphate were added thereto to stop the reaction. Thereafter, a Europium labeled anti-GST antibody, a GST bond GRP1 PH domain, and streptavidin-APC were added thereto, followed by incubation overnight. An HTRF ratio was measured using an HTRF plate reader. The IC50 value of the compound was calculated, taking the inhibition rate without addition of the enzyme as 100% and the inhibition rate without addition of the test compound as 0%, by means of a logistic method.
as §1
Background: TR-FRET usually uses a lanthanide donor and a delayed reading to cut background.

Molecules are shown by their SMILES.

A word on the IC50: it is the concentration at which inhibition is half-maximal.

T1 sequence (P42336 whole entry): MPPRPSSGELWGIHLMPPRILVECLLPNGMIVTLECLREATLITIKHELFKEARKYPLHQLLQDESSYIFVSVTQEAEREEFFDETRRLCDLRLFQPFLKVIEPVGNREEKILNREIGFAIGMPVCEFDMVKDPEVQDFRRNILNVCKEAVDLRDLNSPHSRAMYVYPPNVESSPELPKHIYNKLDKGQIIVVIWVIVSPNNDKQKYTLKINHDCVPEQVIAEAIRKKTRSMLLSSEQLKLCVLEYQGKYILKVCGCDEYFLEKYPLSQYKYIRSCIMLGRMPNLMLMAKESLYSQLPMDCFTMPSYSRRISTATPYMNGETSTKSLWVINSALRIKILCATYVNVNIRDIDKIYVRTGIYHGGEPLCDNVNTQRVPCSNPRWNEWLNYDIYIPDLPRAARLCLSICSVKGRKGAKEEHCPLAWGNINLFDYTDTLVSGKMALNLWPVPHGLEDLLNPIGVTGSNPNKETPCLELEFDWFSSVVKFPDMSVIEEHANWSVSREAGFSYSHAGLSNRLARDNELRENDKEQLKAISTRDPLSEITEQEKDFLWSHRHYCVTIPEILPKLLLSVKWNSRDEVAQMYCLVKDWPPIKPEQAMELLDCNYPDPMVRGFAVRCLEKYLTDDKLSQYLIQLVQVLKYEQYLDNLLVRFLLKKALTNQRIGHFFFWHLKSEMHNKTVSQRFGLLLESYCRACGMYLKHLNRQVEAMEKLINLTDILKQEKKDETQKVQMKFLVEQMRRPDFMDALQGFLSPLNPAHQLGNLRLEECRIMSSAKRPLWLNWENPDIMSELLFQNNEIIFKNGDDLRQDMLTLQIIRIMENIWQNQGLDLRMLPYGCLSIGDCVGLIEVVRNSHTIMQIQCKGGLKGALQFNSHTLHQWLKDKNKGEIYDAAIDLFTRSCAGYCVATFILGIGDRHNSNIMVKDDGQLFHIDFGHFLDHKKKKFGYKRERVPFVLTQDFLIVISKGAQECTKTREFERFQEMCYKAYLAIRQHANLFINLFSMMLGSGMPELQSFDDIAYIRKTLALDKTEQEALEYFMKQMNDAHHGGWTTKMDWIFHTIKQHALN
T1 sequence (P27986 whole entry partner): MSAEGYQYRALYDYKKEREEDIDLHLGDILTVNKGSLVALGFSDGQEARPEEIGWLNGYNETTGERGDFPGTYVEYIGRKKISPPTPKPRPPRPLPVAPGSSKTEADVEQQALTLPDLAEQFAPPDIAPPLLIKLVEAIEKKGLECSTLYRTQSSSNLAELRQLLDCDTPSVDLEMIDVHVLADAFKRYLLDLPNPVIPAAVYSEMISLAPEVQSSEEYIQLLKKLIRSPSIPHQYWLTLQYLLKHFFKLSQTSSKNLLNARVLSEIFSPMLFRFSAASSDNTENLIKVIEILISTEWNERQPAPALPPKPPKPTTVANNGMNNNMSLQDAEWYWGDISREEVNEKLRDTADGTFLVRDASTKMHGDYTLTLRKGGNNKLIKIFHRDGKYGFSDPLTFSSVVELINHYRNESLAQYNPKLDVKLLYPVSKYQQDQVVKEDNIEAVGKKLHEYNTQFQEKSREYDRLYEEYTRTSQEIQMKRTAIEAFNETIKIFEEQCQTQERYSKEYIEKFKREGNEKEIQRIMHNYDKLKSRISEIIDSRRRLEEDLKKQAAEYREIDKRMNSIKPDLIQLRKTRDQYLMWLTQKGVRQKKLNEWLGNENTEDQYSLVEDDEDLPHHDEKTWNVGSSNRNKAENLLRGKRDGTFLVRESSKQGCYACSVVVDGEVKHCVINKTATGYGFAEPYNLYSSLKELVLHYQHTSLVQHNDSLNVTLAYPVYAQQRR
T2 sequence (O00329 whole entry): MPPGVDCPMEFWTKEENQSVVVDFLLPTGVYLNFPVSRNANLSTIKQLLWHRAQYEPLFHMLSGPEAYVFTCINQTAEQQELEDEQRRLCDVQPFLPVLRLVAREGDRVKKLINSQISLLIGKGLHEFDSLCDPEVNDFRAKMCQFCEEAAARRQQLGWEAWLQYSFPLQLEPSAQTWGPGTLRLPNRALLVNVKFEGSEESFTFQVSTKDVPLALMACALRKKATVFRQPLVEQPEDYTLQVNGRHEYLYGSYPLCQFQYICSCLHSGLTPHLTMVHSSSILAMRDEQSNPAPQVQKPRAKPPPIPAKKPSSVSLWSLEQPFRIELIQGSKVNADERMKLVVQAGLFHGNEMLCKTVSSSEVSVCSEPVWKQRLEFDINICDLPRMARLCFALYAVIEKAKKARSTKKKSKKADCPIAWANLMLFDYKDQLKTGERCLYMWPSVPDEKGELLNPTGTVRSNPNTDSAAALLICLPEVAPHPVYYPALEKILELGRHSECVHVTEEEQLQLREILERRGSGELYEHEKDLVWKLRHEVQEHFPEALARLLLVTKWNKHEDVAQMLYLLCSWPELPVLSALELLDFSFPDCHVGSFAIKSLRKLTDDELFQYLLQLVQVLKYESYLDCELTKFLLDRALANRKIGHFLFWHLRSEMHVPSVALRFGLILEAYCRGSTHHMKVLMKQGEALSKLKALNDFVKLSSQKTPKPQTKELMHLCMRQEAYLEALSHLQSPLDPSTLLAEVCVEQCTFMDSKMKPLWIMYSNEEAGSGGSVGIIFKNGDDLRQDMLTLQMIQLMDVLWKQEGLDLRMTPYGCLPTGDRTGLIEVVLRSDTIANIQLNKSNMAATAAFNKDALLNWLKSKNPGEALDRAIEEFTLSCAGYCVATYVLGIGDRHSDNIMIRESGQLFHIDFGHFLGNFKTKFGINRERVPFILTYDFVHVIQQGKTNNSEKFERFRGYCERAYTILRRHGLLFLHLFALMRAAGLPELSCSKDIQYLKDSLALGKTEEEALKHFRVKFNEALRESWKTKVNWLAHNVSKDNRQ
T2 sequence (P27986 whole entry partner): as the sequence (P27986 whole entry partner) above

Regarding `Cc1ccc(S(=O)(=O)NCC(=O)N[C@H]2CC[C@H](Nc3nc(N4CCOCC4)cc(-n4c(C(F)F)nc5ccccc54)n3)CC2)cc1` [Example 53], the IC50 stood at 2700 nM on Human PI3Kα and 4.6 nM against human PI3Kδ enzyme.
For `CCN(C(=O)COC)[C@H]1CC[C@H](CNc2nc(N3CCOCC3)cc(-n3c(C(F)F)nc4ccccc43)n2)CC1` [Example 499] the same measures were 1500 nM and 11 nM.
The like results for `O=S1(=O)CCCN1[C@H]1CC[C@H](Nc2cc(-n3c(C(F)F)nc4ccccc43)nc(N3CCOCC3)n2)CC1` [Example 18, 6-[2-(difluoromethyl)-1H-benzimidazol-1-yl]-N-[trans-4-(1,1-dioxidoisothiazolin-2-yl)cyclohexyl]-2-morpholin-4-ylpyrimidin-4-amine] were, in that order, 2900 nM and 5 nM.
The like results for `CC(F)C(C)N(C)[C@H]1CC[C@H](CNc2nc(N3CCOCC3)cc(-n3c(C(F)F)nc4ccccc43)n2)CC1` (some centres unmarked) [Example 384] were, in that order, 1600 nM and 16 nM.
`O=C(N[C@H]1CC[C@H](Nc2nc(N3CCOCC3)cc(-n3c(C(F)F)nc4ccccc43)n2)CC1)[C@@H]1CCCN1` [Example 154]: the IC50 at Human PI3Kα was determined as 1800 nM; against human PI3Kδ enzyme it was 3.8 nM.
For `CN(C)CCC(=O)N[C@H]1CC[C@H](Nc2nc(N3CCOCC3)cc(-n3c(C(F)F)nc4ccccc43)n2)CC1` [Example 208] the same measures were 2300 nM and 8.6 nM.
As for `O=C(CN1CCCC1)N[C@H]1CC[C@H](Nc2nc(N3CCOCC3)cc(-n3c(C(F)F)nc4ccccc43)n2)CC1` [Example 187], the IC50 against human PI3Kδ enzyme turned out to be 9.1 nM.
Regarding `FC(F)c1nc2ccccc2n1-c1nc(N[C@H]2CC[C@H](N3CCOCC3)CC2)nc(N2CCOCC2)n1` [Example 10, 4-[2-(difluoromethyl)-1H-benzimidazol-1-yl]-6-morpholin-4-yl-N-(trans-4-morpholin-4-ylcyclohexyl)-1,3,5-triazin-2-amine], the figures for the IC50 on Human PI3Kα and against human PI3Kδ enzyme were 1500 nM and 7.1 nM, respectively.
The like results for `COCCN(CC(C)(C)O)[C@H]1CC[C@H](CNc2nc(N3CCOCC3)cc(-n3c(C(F)F)nc4ccccc43)n2)CC1` [Example 401] were, in that order, 3500 nM and 15 nM.
With `CCOCCN(C)[C@H]1CC[C@H](CNc2nc(N3CCOCC3)cc(-n3c(C(F)F)nc4ccccc43)n2)CC1` [Example 397], the results for the IC50 on Human PI3Kα and on human PI3Kδ enzyme were 2900 nM and 23 nM, respectively.
The like results for `O=C(CS(=O)(=O)c1ccccc1)N[C@H]1CC[C@H](Nc2nc(N3CCOCC3)cc(-n3c(C(F)F)nc4ccccc43)n2)CC1` [Example 52] were, in that order, 2700 nM and 3.4 nM.
The like results for `O=S1(=O)CCCN1[C@H]1CC[C@H](COc2cc(-n3c(C(F)F)nc4ccccc43)nc(N3CCOCC3)n2)CC1` [Example 209] were, in that order, 2800 nM and 20 nM.
For `CC(F)CN(C)[C@H]1CC[C@H](CNc2nc(N3CCOCC3)cc(-n3c(C(F)F)nc4ccccc43)n2)CC1` (some centres unmarked) [Example 330] the same measures were 5500 nM and 8.6 nM.
In the case of `C#CCN(CC#C)[C@H]1CC[C@H](CNc2nc(N3CCOCC3)cc(-n3c(C(F)F)nc4ccccc43)n2)CC1` [Example 423], the figures for the IC50 on Human PI3Kα and on human PI3Kδ enzyme were 4200 nM and 11 nM, respectively.
As for `O=C(CN1CCCCCC1)N[C@H]1CC[C@H](Nc2cc(-n3c(C(F)F)nc4ccccc43)nc(N3CCOCC3)n2)CC1` [Example 190], the values for the IC50 on Human PI3Kα and against human PI3Kδ enzyme were above 3000 nM and 4.1 nM, respectively.
On to `CC(N[C@H]1CC[C@H](Nc2nc(N3CCOCC3)nc(-n3c(C(F)F)nc4ccccc43)n2)CC1)c1ccccc1O` (some centres unmarked) [Example 108], for which the IC50 was determined as 2200 nM at Human PI3Kα and 2.8 nM at human PI3Kδ enzyme.
For `CN1CCC[C@@H](C(=O)N[C@H]2CC[C@H](Nc3nc(N4CCOCC4)cc(-n4c(C(F)F)nc5ccccc54)n3)CC2)C1` [Example 112] the same measures were 1400 nM and 4.6 nM.
The like results for `CC(C)(O)CN(CC(C)(C)O)[C@H]1CC[C@H](CNc2nc(N3CCOCC3)cc(-n3c(C(F)F)nc4ccccc43)n2)CC1` [Example 396] were, in that order, 2300 nM and 13 nM.
For `FC[C@@H]1CCCN1[C@H]1CC[C@@H](CNc2cc(-n3c(C(F)F)nc4ccccc43)nc(N3CCOCC3)n2)CC1` [Example 485] the same measures were above 10000 nM and 31 nM.
For the compound `O=C1CCCN1[C@H]1CC[C@H](Nc2cc(-n3c(C(F)F)nc4ccccc43)nc(N3CCOCC3)n2)CC1` [Example 185], the figures for the IC50 at Human PI3Kα and against human PI3Kδ enzyme were above 3000 nM and 4.3 nM, respectively.
For `C#CCN(C(C)C(C)(C)O)[C@H]1CC[C@H](CNc2nc(N3CCOCC3)cc(-n3c(C(F)F)nc4ccccc43)n2)CC1` (some centres unmarked) [Example 481] the same measures were 1100 nM and 8.9 nM.
The like results for `FC[C@@H]1CCCN1[C@H]1CC[C@@H](COc2cc(-n3c(C(F)F)nc4ccccc43)nc(N3CCOCC3)n2)CC1` [Example 483] were, in that order, 8700 nM and 15 nM.
For `O=S(=O)(N[C@H]1CC[C@H](Nc2cc(-n3c(C(F)F)nc4ccccc43)nc(N3CCOCC3)n2)CC1)c1ccccc1` [Example 95] the same measures were 2500 nM and 4.9 nM.
Regarding `O=S1(=O)CCN([C@H]2CC[C@H](CNc3nc(N4CCOCC4)cc(-n4c(C(F)F)nc5ccccc54)n3)CC2)CC1` [Example 231], the IC50 on Human PI3Kα was determined as 1500 nM; at human PI3Kδ enzyme, 8.2 nM.
`CC(N[C@H]1CC[C@H](Nc2nc(N3CCOCC3)nc(-n3c(C(F)F)nc4ccccc43)n2)CC1)C1CCCCC1` (some centres unmarked) [Example 107] displayed an IC50 at human PI3Kδ enzyme of 8.8 nM.
Regarding `CNC(=O)N[C@H]1CC[C@H](Nc2nc(N3CCOCC3)nc(-n3c(C(F)F)nc4ccccc43)n2)CC1` [Example 5, 1-[trans-4-({4-[2-(difluoromethyl)-1H-benzimidazol-1-yl]-6-morpholin-4-yl-1,3,5-triazin-2-yl}amino)cyclohexyl]-3-methylurea], the IC50 at Human PI3Kα came out at 210 nM; at human PI3Kδ enzyme, 11 nM.
For `N#Cc1ccc(NC(=O)N[C@H]2CC[C@H](Nc3cc(-n4c(C(F)F)nc5ccccc54)nc(N4CCOCC4)n3)CC2)cc1` [Example 125] the same measures were above 3000 nM and 1.8 nM.
For `N#Cc1ccc(NC(=O)N[C@H]2CC[C@H](Nc3nc(N4CCOCC4)cc(-n4c(C(F)F)nc5ccccc54)n3)CC2)cc1` [Example 123] the same measures were 460 nM and 0.85 nM.
For `CCN(C(C)CF)[C@H]1CC[C@H](CNc2nc(N3CCOCC3)cc(-n3c(C(F)F)nc4ccccc43)n2)CC1` (some centres unmarked) [Example 344] the same measures were 1000 nM and 14 nM.
Regarding `N[C@H]1CC[C@H](Nc2nc(N3CCOCC3)nc(-n3c(C(F)F)nc4ccccc43)n2)CC1` [Example 27], the half-inhibitory concentration (IC50) amounted to 990 nM on Human PI3Kα and 20 nM at human PI3Kδ enzyme.
Consider `Oc1ccccc1CN[C@H]1CC[C@H](Nc2nc(N3CCOCC3)nc(-n3c(C(F)F)nc4ccccc43)n2)CC1` [Example 104], for which the results for the IC50 on Human PI3Kα and at human PI3Kδ enzyme were 810 nM and 2.1 nM, respectively.
In the case of `CCN(CC(C)(C)O)[C@H]1CC[C@H](CNc2nc(N3CCOC[C@H]3C)cc(-n3c(C(F)F)nc4ccccc43)n2)CC1` [Example 402], the IC50 at Human PI3Kα amounted to 610 nM; against human PI3Kδ enzyme it was 3.6 nM.
For `O=C(NCc1ccc(F)cc1)N[C@H]1CC[C@H](Nc2nc(N3CCOCC3)nc(-n3c(C(F)F)nc4ccccc43)n2)CC1` [Example 116] the same measures were 180 nM and 5.2 nM.
As for `CC(C)(C)OC(=O)NC(C)(C)C(=O)N[C@H]1CC[C@H](Nc2nc(N3CCOCC3)cc(-n3c(C(F)F)nc4ccccc43)n2)CC1` [Example 210], the IC50 on Human PI3Kα stood at 5100 nM; against human PI3Kδ enzyme it was 22 nM.
The like results for `O=S1(=O)CCN([C@H]2CC[C@H](CNc3cc(-n4c(C(F)F)nc5ccccc54)nc(N4CCOCC4)n3)CC2)CC1` [Example 229] were, in that order, 6700 nM and 10 nM.
The like results for `FC(F)c1nc2ccccc2n1-c1cc(OC[C@H]2CC[C@H](N3CCOCC3)CC2)nc(N2CCOCC2)n1` [Example 216] were, in that order, above 3000 nM and 5.6 nM.
Regarding `CC(=O)N[C@H]1CC[C@H](Nc2nc(N3CCOCC3)nc(-n3c(C(F)F)nc4ccccc43)n2)CC1` [Example 193], the IC50 amounted to 550 nM at Human PI3Kα and 23 nM against human PI3Kδ enzyme.
The like results for `CN(C)CC(=O)N(C)[C@H]1CC[C@H](Nc2nc(N3CCOCC3)nc(-n3c(C(F)F)nc4ccccc43)n2)CC1` [Example 47] were, in that order, 900 nM and 16 nM.
